The subject of one series is PC-3 tumor-bearing mice. Description: Ex vivo biodistribution of 68Ga-labeled tracers in PC-3 tumor-bearing mice. As to conditions: 1 h pi; for reduction of average tumor uptake by co-injection of blocking agent: 100 µg blocking agent. The method, then: PET/CT imaging and biodistribution studies were conducted using male NOD.Cg-Rag1^tm1Mom Il2rg^tm1Wjl/SzJ (NRG) mice following previously published procedures. The studies were carried out in compliance with the guidelines established by the Canadian Council on Animal Care and approved by Animal Ethics Committee of the University of British Columbia (protocol number A20-0113, approved on 30 September 2022). The mice were anaesthetized and subcutaneously implanted with 5 × 10^6 PC-3 cells (100 µL; 1:1 PBS/Matrigel) behind the left shoulder. PET/CT imaging and biodistribution studies were performed once the tumors reached a diameter of 5–8 mm, typically after approximately 4 weeks of growth.
For ex vivo biodistribution studies, the mice were injected with the ^68Ga-labeled tracer (2–4 MBq) via a lateral caudal tail vein. For blocking [^68Ga]Ga-LW02060, the mice were co-injected with 100 μg of [D-Phe^6,Leu-NHEt^13,des-Met^14]Bombesin(6–14). For blocking [^68Ga]Ga-LW02080, the mice were co-injected with 100 μg of its nonradioactive standard Ga-LW02080. At 1 h pi, the mice were euthanized by CO2 inhalation. Blood and organs/tissues of interest were collected, weighed, and counted using a gamma counter.

The nature of series [1]: In vivo stability study (radio-HPLC of plasma and urine). The settings on record: NRG mice, 15 min pi; for remaining intact in plasma: n = 3. The method, then: For in vivo stability studies, [^68Ga]Ga-LW02060 or [^68Ga]Ga -LW02080 (5.23–12.9 MBq) was injected into healthy male NRG mice (n = 3) tough a lateral caudal tail vein. At 15 min pi, mice were anaesthetized and euthanized, followed by collection of the urine and blood samples. The plasma was extracted from whole blood by adding an equal volume of CH3CN, followed by vortexing, centrifugation, and collection of the supernatant. The plasma and urine samples were analyzed via radio-HPLC.

As to `CC(C)C[C@H](NC(=O)[C@H](Cc1cnc[nH]1)N(C)C(=O)CNC(=O)[C@@H](NC(=O)[C@H](C)NC(=O)[C@H](Cc1c[nH]c2ccccc12)NC(=O)[C@H](CCC(N)=O)NC(=O)[C@@H](Cc1ccccc1)NC(=O)CN1CCC(NC(=O)CN2CCN(CC(=O)O)CCN(CC(=O)O)CCN(CC(=O)O)CC2)CC1)C(C)(C)C)C(=O)N1CC(F)(F)C[C@H]1C(N)=O` [[^68Ga]Ga-LW02060] [metal not drawn], in the series with PC-3 tumor-bearing mice, the “tumor uptake relative to [68Ga]Ga-LW02080” value was 2.3 fold; the “tumor uptake relative to previously reported [68Ga]Ga-LW02056” value amounted to 1.9 fold; the “uptake in all other collected organs/tissues (except tumor xenografts and kidneys)” value is given as “lower than 1 %ID/g”; the “reduction of average tumor uptake by co-injection of blocking agent” value is 64%. Also, in series [1], the “intact tracer in urine” value is given as “No intact tracer was detected” and the “remaining intact in plasma” value is listed as over 99%.
For `CC(C)C[C@@H](CN1CC(F)(F)C[C@H]1C(N)=O)NC(=O)[C@H](Cc1c[nH]cn1)NC(=O)CN(C)C(=O)[C@@H](NC(=O)[C@H](C)NC(=O)[C@H](Cc1c[nH]c2ccccc12)NC(=O)[C@H](CCC(N)=O)NC(=O)[C@@H](Cc1ccccc1)NC(=O)CN1CCC(NC(=O)CN2CCN(CC(=O)O)CCN(CC(=O)O)CCN(CC(=O)O)CC2)CC1)C(C)C` [[^68Ga]Ga-LW02080] [metal not drawn], in the series with PC-3 tumor-bearing mice, the “uptake in all other collected organs/tissues (except tumor xenografts and kidneys)” value is on record as “lower than 1 %ID/g”; the “reduction of average tumor uptake by co-injection of blocking agent” value was 77%. In series [1], the “intact tracer in urine” value is reported as “No intact tracer was detected” and the “remaining intact in plasma” value is 87.4 ± 5.34%.
